Measurements reported in patent US9296722B2, “Azolyl urea compounds and methods of use thereof” (Ambit Biosciences Corporation, priority 2010, dated 2016).

Columns and labels:
[1] = target: kinase panel containing either 359 or 386 distinct kinases; assay: Competition binding assay, selectivity score (S10) against a panel of kinases; settings: compounds at 10 μM; fraction of kinases with percent of control less than 10
Experimental: Competition binding assays used herein were developed, validated and performed as described in Fabian et al., Nature Biotechnology 2005, 23, 329-336. Kinases were produced as fusions to T7 phage (See, Fabian et al. or WO04/015142) or alternatively, the kinases were expressed in HEK-293 cells and subsequently tagged with DNA for PCR detection (See, WO08/005,310). […] The liganded beads were blocked with excess biotin and washed with blocking buffer (SeaBlock (Pierce), 1% BSA, 0.05% Tween 20, 1 mM DTT) to remove unbound ligand and to reduce non-specific binding. […] Test compounds were prepared as 100× stocks in DMSO and diluted into the aqueous environment. Kds were determined using an eleven point threefold serial dilutions. DMSO or control compounds were was added to control assays lacking a test compound. Primary screen assays were performed in polypropylene 384-well plates in a final volume of 20-40 μL, while Kd determinations were performed in polystyrene 96-well plates in a final volume of […]. […] The kinase concentration in the eluates was measured by quantitative PCR.
A selectivity score (S10) is a quantitative measure of selectivity of a compound against a panel of kinases. An S10 was calculated for a compound by dividing the number of kinases found to have a percent of control (DMSO) less than 10 by the total number of distinct kinases tested (excluding mutant variants). Percent of control (POC) is calculated by subtracting the signal of the control compound
(POC=0) from the signal of the test compound and dividing the outcome by the signal of DMSO (POC=100) minus the signal of the control compound. For the compounds disclosed herein, S10 scores were obtained by testing the compounds at 10 μM concentration in a kinase panel containing either 359 or 386 distinct kinases.

[2] = target: T1, CSF1R (mouse) (Mus musculus, UniProt P09581); assay: Competition binding assay, CSF1R (mouse) Kd
T1 construct: made in house; host or cells: T7 phage display or HEK-293 cells (alternatives, not resolved per kinase)
T1 sequence (P09581 20-977): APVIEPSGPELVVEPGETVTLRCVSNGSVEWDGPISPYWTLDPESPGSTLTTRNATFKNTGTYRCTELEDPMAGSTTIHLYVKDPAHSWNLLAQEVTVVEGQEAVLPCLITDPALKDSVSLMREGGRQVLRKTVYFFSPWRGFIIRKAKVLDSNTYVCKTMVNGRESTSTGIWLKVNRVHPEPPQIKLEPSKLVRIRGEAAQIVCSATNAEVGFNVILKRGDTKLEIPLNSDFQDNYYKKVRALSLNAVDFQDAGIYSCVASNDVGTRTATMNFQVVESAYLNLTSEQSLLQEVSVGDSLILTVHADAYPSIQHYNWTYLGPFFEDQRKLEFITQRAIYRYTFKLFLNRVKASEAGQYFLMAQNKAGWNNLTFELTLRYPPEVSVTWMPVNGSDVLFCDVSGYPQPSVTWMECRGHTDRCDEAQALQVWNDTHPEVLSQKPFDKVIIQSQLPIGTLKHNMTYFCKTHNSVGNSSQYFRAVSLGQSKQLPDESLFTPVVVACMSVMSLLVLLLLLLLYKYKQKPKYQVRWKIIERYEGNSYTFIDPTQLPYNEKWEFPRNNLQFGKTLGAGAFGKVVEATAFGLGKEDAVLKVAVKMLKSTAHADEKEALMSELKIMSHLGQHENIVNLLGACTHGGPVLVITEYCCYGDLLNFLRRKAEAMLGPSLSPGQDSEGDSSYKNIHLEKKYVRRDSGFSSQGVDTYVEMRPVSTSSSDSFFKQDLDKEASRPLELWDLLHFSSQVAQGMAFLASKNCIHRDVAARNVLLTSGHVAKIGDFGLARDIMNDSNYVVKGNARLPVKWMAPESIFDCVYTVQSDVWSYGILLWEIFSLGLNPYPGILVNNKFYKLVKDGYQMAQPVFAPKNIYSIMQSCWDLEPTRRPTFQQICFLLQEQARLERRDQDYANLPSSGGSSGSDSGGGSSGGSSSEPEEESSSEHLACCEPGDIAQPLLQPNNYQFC
Experimental: (§1) The liganded beads were blocked with excess biotin and washed with blocking buffer (SeaBlock (Pierce), 1% BSA, 0.05% Tween 20, 1 mM DTT) to remove unbound ligand and to reduce non-specific binding. […] Test compounds were prepared as 100× stocks in DMSO and diluted into the aqueous environment. Kds were determined using an eleven point threefold serial dilutions. DMSO or control compounds were was added to control assays lacking a test compound. […] The kinase concentration in the eluates was measured by quantitative PCR.

[3] = test system: M-NFS-60 cells; assay: M-NFS-60 cell proliferation assay; format: cell-based, mouse; parameters: CSF1R Cell Proliferation (M-NFS-60) IC50 (nM): scale not given here; settings: 72 hours incubation, Alamar Blue, M-CSF-dependent cells; for IC50: Mus musculus, read-out: CSF1R Cell Proliferation (M-NFS-60) IC50
Experimental: In certain embodiments, the compounds disclosed herein are tested in an M-NFS-60 cell proliferation assay to determine their cellular potency against CSF-1R. M-NFS-60s are mouse monocytic cells that depend on the binding of the ligand M-CSF to its receptor, CSF-1R, to proliferate Inhibition of CSF-1R kinase activity will cause reduced growth and/or cell death. This assay assesses the potency of compounds as CSF-1R inhibitors by measuring the reduction of Alamar Blue reagent by viable cells. An exemplary assay is described in the Examples section.
The compounds disclosed herein were tested in an M-NFS-60 cell proliferation assay to determine their cellular potency against CSF1R. M-NFS-60s are mouse monocytic cells that depend on the binding of the ligand M-CSF to its receptor, CSF1R, to proliferate Inhibition of CSF1R kinase activity will cause reduced growth and/or cell death. This assay assesses the potency of compounds as CSF1R inhibitors by measuring the reduction of Alamar Blue reagent by viable cells.
On day one of the experiment, M-NFS-60 cells were maintained in RPMI complete medium (Omega Scientific) plus 10% FBS supplemented with 20 ng/mL of M-CSF (R&D Systems). 96-well TC-treated, flat bottom plates were seeded at 10,000 cell/well at a volume of 100 μL per well. The cells were cultured overnight at 37° C. under 5% CO2.
On day two, compounds were added to the cells at 9 different concentrations, with half-log intervals alongside a control reference compound serving as a positive control. Final DMSO concentration was kept at 0.5% for a final volume of 200 μL. The compounds were allowed to incubate with the cells for 72 hours at 37° C. under 5% CO2.
On day five of the experiment, 40 μl of Alamar Blue reagent was added to each well and allowed to incubate for 3 hours. Alamar Blue fluorescence was read using SoftMax Pro software at 560 nm (excitation) and 590 nm (emission). IC50s were generated as an average of duplicates and represents the concentration of test compound that achieves 50% inhibition of cellular proliferation compared to control.

[4] = target: T2, CSF1R (human) (Homo sapiens, UniProt P07333); assay: Competition binding assay, CSF1R (human) Kd
T2 construct: made in house; host or cells: T7 phage display or HEK-293 cells (alternatives, not resolved per kinase)
T2 sequence (P07333 20-972): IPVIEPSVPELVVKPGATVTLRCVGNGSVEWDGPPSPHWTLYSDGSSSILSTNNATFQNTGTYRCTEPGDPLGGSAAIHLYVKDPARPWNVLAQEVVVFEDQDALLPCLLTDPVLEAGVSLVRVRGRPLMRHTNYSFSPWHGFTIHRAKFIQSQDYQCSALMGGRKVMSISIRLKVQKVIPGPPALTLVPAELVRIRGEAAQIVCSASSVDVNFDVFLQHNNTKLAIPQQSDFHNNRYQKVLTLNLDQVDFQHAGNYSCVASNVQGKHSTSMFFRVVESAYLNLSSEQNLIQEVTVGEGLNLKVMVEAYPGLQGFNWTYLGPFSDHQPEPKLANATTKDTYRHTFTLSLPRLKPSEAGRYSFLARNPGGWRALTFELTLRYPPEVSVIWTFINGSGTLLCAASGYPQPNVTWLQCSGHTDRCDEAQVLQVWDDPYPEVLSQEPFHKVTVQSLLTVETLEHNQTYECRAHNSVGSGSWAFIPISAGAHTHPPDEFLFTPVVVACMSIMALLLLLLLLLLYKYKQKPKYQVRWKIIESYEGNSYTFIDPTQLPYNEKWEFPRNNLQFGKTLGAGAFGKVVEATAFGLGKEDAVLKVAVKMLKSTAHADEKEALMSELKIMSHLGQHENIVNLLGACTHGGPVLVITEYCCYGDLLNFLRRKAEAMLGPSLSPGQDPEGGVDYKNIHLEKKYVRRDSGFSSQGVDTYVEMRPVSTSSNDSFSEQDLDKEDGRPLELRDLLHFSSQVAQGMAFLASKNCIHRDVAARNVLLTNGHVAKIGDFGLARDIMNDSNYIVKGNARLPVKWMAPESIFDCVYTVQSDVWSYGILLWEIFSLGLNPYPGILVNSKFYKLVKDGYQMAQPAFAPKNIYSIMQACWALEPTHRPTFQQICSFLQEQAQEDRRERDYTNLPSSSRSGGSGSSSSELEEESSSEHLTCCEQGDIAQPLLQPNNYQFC
Experimental: as §1

Compound	Kinase Specificity (S10) [1]	Kd [2]	Kd [4]	IC50 [3]	CSF1R Cell Proliferation (M-NFS-60) IC50 (nM) [3]
CC(C)(C)c1cc(NC(=O)Nc2ccc(NC(=O)c3cccc(CN4CCOCC4)n3)cc2)no1	B (0.03 < B ≦ 0.05)	> 10 nM	> 10 nM	> 1000 nM	–
CC(C)(C)c1cc(NC(=O)Nc2ccc(NC(=O)c3cc(OCCN4CCOCC4)ccn3)cc2)no1	A (A ≦ 0.03)	< 3 nM	3 to 10 nM	–	B/C
CC(C)(C)c1cc(NC(=O)N[C@H]2CC[C@H](NC(=O)c3ccc(OC4CCNCC4)cn3)CC2)no1	A (A ≦ 0.03)	3 to 10 nM	3 to 10 nM	> 1000 nM	–
CCN(CC)Cc1cccc(C(=O)Nc2ccc(NC(=O)Nc3cc(C(C)(C)C)on3)cc2)n1	A (A ≦ 0.03)	> 10 nM	> 10 nM	> 1000 nM	–
CN1CCC(c2ccc(C(=O)Nc3ccc(NC(=O)Nc4cc(C(C)(C)C)on4)cc3)nc2)CC1	B (0.03 < B ≦ 0.05)	3 to 10 nM	3 to 10 nM	≤ 100 nM	–

Continued, in another order:

Kinase Specificity (S10) [1]	Kd [2]	Kd [4]	Compound	IC50 [3]	CSF1R Cell Proliferation (M-NFS-60) IC50 (nM) [3]
A (A ≦ 0.03)	< 3 nM	< 3 nM	CC(C)(C)c1cc(NC(=O)Nc2ccc(NC(=O)c3ccc(CC4CCNCC4)cn3)cc2)no1	100 to 250 nM	–
B (0.03 < B ≦ 0.05)	< 3 nM	< 3 nM	CCN1CCC(Oc2ccc(C(=O)Nc3ccc(NC(=O)Nc4cc(C(C)(CF)CF)on4)cc3)nc2)CC1	≤ 100 nM	–
B (0.03 < B ≦ 0.05)	< 3 nM	< 3 nM	CC(C)N1CCC(Oc2ccc(C(=O)Nc3ccc(NC(=O)Nc4cc(C(C)(CF)CF)on4)cc3)nc2)CC1	≤ 100 nM	–
